Test results: article PMC8518382, “Identification of a Bromodomain‐like Region in 15‐Lipoxygenase‐1 Explains Its Nuclear Localization” (Angewandte Chemie (International Ed. in English), 2021)

Legend:
15-LOX-1 [1] = target: T1, 15-LOX-1 (Homo sapiens, UniProt P16050); experiment: 15-LOX-1 activity assay, UV-absorbance change for linoleic acid conversion; type: biochemical; design: His-tag (N); made in house; host or cells: E. coli BL21(DE3); conditions: for IC50: 10 min pre-incubation at RT, 25 µM linoleic acid, absorbance 234 nm; for Mode of inhibition (Lineweaver–Burk plots): Km constant, Vmax decreases with inhibitor concentration
T1 sequence (P16050 1-662): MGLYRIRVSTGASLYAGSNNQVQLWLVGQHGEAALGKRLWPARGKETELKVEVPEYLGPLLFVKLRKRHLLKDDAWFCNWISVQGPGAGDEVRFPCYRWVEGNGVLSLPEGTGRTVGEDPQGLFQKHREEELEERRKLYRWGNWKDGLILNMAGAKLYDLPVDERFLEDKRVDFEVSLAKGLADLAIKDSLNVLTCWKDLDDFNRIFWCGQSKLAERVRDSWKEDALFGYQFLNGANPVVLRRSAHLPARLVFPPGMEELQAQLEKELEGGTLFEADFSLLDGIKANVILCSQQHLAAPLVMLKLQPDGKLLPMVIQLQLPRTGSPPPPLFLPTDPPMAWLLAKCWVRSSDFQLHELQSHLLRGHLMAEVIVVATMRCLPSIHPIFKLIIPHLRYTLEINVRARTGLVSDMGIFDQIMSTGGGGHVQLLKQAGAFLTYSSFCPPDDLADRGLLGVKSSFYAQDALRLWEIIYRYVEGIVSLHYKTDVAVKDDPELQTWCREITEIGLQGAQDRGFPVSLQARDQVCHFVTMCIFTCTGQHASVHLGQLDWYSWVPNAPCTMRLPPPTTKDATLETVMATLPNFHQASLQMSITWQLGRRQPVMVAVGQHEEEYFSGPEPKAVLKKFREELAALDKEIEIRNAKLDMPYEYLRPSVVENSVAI
From the text: In brief, an alkyne‐alcohol was linked to propargyl halide (Cl or Br) using a CuI‐catalyzed Sonogashira cross‐coupling reaction followed by biotinylation of the alcohol using EDCI and HOBt as reagents to provide the desired biotinylated bis‐alkyne probes. The biotinylated bis‐alkynes were subjected to 15‐LOX‐1 binding studies using a 15‐LOX‐1 activity assay based on the UV‐absorbance change for linoleic acid conversion (Figure 1 a). […] Next, we evaluated the effect of the extension of the terminal ethyl substitution of inhibitor 1. […]
empty plasmid was proceed with the same procedure, which lysate was used as the negative control (referred as BL21 control later) in 15-LOX-1 recombinant enzyme inhibition studies.
1.3. Purification of recombinant human 15-LOX-1
The 15-LOX-1 with N-terminal his-tag was produced as described above. After removing the cell debris, the supernatant containing 15-LOX-1 was loaded on a Ni-NTA column (Qiagen, Hilden, Germany) pre-equilibrated with LOX lysis buffer. The column was washed twice with 30 column volume of LOX lysis buffer, and once with 30 column volume of wash buffer (25 mM HEPES, 300 mM NaCl, 25 mM Imidazole, pH 8.0). Later, the 15-LOX-1 was eluted twice with 2 column volume of elution buffer (25 mM HEPES, 300 mM NaCl, 250 mM Imidazole, pH 8.0), followed by desalting with a PD-10 column (Sigma-Aldrich) with LOX storage buffer (25 mM HEPES, 20% Glycerol, pH 7.5). The desalted 15-LOX-1 was further purified and concentrated with Vivaspin Turbo 15 (30.000 MWCO). The protein concentration was determined by Nanodrop spectrophotometry. The 100 μl aliquots of 15-LOX-1 were stored at -20 for further experiments.
15-LOX-1 recombinant enzyme inhibition assay
The 15-LOX-1 inhibition assay has been detailed previously. Briefly, the conversion of linoleic acid to hydroperoxy-(9Z,11E)-octadecadienoic acid (λmax of 234 nm) was used to determine the activity of the 15-LOX-1 enzyme. The conversion rate was the slope of UV-absorbance at 234 nm overtime at the […]
To determine the IC50 of probes, the cell lysate was pre-diluted in LOX assay buffer at a ratio of 1:160. The inhibition assay was done in an F-bottom UV-STAR 96-well plate, in which 50 µl of the diluted enzyme was incubated with 140 µl of a probe diluted in LOX assay buffer for 10 min at room temperature (RT). Later 10 µl of 500 µM linoleic acid dissolved in ethanol was added to the plate to reach a final concentration of 25 µM. The UV-absorbance at 234 nm was determined by a BioTek Synergy H1 plate reader (BioTek, Winooski, VT, USA) . The slope of the 15-LOX-1 sample untreated with the probe was set as 100%, while the slope of the BL21 control sample was set as 0%.
For the determination of enzyme kinetics, a series concentration of linoleic acid was used. Fifty µl of pre-diluted 15-LOX-1 enzyme was incubated with 140 µl of probe solution at a fixed concentration for 10 min at RT. Subsequently, 10 µl of a series concentration of linoleic acid was added to a final concentration ranging from 10 µM to 100 µM. The conversion rate was calculated as the same as […]
described in the IC50 determination assay. Michaelis-Menten plots, Lineweaver-Burk plots, Km, and Vmax, are generated using GraphPad Prism 8.3.0. […]

15-LOX-1 [2] = target: T1, 15-LOX-1; experiment: Kitz-Wilson kinetic analysis of 15-LOX-1 inactivation; type: biochemical; design: His-tag (N); made in house; host or cells: E. coli BL21(DE3); conditions: for Ki: read-out: K i (equilibrium binding constant)
Method: Subsequently, Kitz‐Wilson analysis was performed to distinguish the equilibrium binding constant (K i) from the rate of covalent inactivation (k i). The different bis‐alkynes provided remarkably constant k i’s that varied by a factor 3 or less, whereas the K i’s varied by a factor 200 (Table 1). […] Improved non‐covalent binding is an important characteristic for activity‐based labeling because it implies improved specific recognition properties to the target of interest. Therefore, inhibitor 3 has been used for further development of a probe for activity‐based labeling of lipoxygenase activity with 15‐LOX‐1 as a reference enzyme. For convenient discussion, we named inhibitor 3, “Labelox B”. […]
described in the IC50 determination assay. Michaelis-Menten plots, Lineweaver-Burk plots, Km, and Vmax, are generated using GraphPad Prism 8.3.0.
1.5. Kits-Wilson kinetic analysis
The probes inhibit the 15-LOX-1 enzyme with a two-step reaction. First, a probe binds to an enzyme to get a reversible complex, E*I. The dissociation constant of inhibitor (Ki) is from the formation of E*I. Then, the probe forms a covalent bond with the enzyme, which generates an irreversible complex, E-I. The inactivation rate constant (ki) is to describe the rate of E-I generation. To determine these inactivation parameters, Kitz-Wilson analysis was employed. The procedure has been detailed previously

SMILES	IC50 (15-LOX-1 [1]) [µM]	Mode of inhibition (Lineweaver–Burk plots) (15-LOX-1 [1])	k i (rate of covalent inactivation) (15-LOX-1 [2]) [min⁻¹]	Ki (15-LOX-1 [2]) [µM]	other results
CCC#CCC#CCOC(=O)CCCC[C@@H]1SCC2NC(=O)NC21 (some centres unmarked) [Probe 1]	38.2	non‐competitive LOX inhibition	0.0136 ± 0.0061	116 ± 19.5	
CCC#CCC#CC(C)OC(=O)CCCC[C@@H]1SCC2NC(=O)NC21 (some centres unmarked) [Probe 2]	> 100				LOX inhibitory potency (words) (15-LOX-1 [1]; structure-activity discussion): potency was lost
CCC#CCC#CCCOC(=O)CCCC[C@@H]1SC[C@@H]2NC(=O)N[C@@H]21 [Probe 4]	11.1		0.0093 ± 0.0031	16.6 ± 3.29	LOX inhibitory potency (words) (15-LOX-1 [1]; structure-activity discussion in text, listed as 4): loss of LOX inhibitory potency
CCC#CCC#CCCCOC(=O)CCCC[C@@H]1SC[C@@H]2NC(=O)N[C@@H]21 [Probe 5]	19.8		0.0066 ± 0.0047	38.7 ± 6.33	LOX inhibitory potency (words) (15-LOX-1 [1]; structure-activity discussion): loss of LOX inhibitory potency
CCCCCC#CCC#CCCCOC(=O)CCCC[C@@H]1SC[C@@H]2NC(=O)N[C@@H]21 [Probe 6]					LOX inhibitory potency (words) (15-LOX-1 [1]; structure-activity discussion in text, listed as 6): did not improve the potency
CCCCCC#CCC#CCCCOC(=O)CCCC[C@@H]1SC[C@@H]2NC(=O)N[C@@H]21 [Probe 7]	> 100	non‐competitive LOX inhibition			LOX inhibitory potency (words) (15-LOX-1 [1]; structure-activity discussion in text, listed as 7): regain in potency
CCC#CCC#CCCOC(=O)CCCC[C@@H]1SC[C@@H]2NC(=O)N[C@@H]21 [Probe 8]	> 100	non‐competitive LOX inhibition			LOX inhibitory potency (words) (15-LOX-1 [1]; structure-activity discussion in text, listed as 8): did not improve the potency
C#CCOC(=O)CCCC[C@@H]1SCC2NC(=O)NC21 (some centres unmarked) [Probe 9]	> 100				
CCCC#CCOC(=O)CCCC[C@@H]1SCC2NC(=O)NC21 (some centres unmarked) [Probe 10]	> 100				
